Test results taken from US20240190896A1, “SMTP-7 DERIVATIVE AND USE THEREOF” (Shanghai Senhui Medicine Co., Ltd., priority 2021, published 2024).

Columns and labels:
[1] = Test Example 1: Pharmacokinetic study in rats (intravenous); format: in vivo; conditions: rat, SD rats, 5 mg/kg intravenous injection, plasma; for MRT last: read-out: MRT(0-t)
Protocol: A proper amount of each of SMTP-7 and compound 1 was weighed out, and 2% (final volume) DMSO and 98% (final volume) normal saline were added. After they were well mixed by vortexing and ultrasonication, a 1 mg/mL clear solution was obtained for later use.
SD Rats, at the Age of 6-8 Weeks, Weighing about 180-220 g.
About 0.20 mL of blood was collected for each sample via the jugular vein or other suitable is routes, and sodium heparin was used as the anticoagulant. The blood was placed on ice immediately after the collection. The collection was performed at a total of 10 time points: before administration, and 5 min, 0.25 h, 0.5 h, 1 h, 2 h, 4 h, 6 h, 10 h and 24 h after administration. The collected blood samples were placed in heparin anticoagulant blood collection tubes and centrifuged at 6800 g at 2-8° C. for 6 min to separate plasma. The plasma samples were stored in a freezer at −80° C. before analysis.
The plasma concentration of each test compound was determined. The analysis of quality control samples was performed while the samples were analyzed, and more than 66.7% of the quality control samples were required to have an accuracy of 80-120%.
When plasma drug concentration-time curves were plotted, BLQ was recorded as 0. When the pharmacokinetic parameters were calculated, the concentration before administration was calculated as 0; BLQ before Cmax (including “No peak”) was calculated as 0; and BLQ that occurs after Cmax (including “No peak”) was excluded from the calculation. The following pharmacokinetic parameters were calculated from the plasma concentration data of different time points using the non-compartmental analysis method of Phoenix WinNonlin 7.0 software: AUC(0−t), AUC(0−∞), T1/2, MRT, Cmax, Tmax, etc.

[2] = Test Example 2: Pharmacokinetic study in rats (intravenous); format: in vivo, SD rats; conditions: 5 mg/kg intravenous administration
Protocol: After they were well mixed by vortexing and ultrasonication, a 1 mg/mL clear solution was obtained for later use.
SD Rats, at the Age of 6-8 Weeks, Weighing about 180-240 g.
The pharmacokinetic parameters such as AUC(0−t), AUC(0−∞), T1/2, MRT, Cmax and Tmax were measured in rats according to the method of Test Example 1.

SMILES | AUC(0-t) [1] | Cmax [1] | Tmax [1] | half-life [1] | MRT last [1] | AUC (comparison in words) [2] | T1/2 (comparison in words) [2]
[2H]C([2H])(CC[C@@H](C(=O)O)N1Cc2c(cc(O)c3c2O[C@@](C)(CC/C=C(\C)CCC=C(C)C)[C@@H](O)C3)C1=O)N1Cc2c(cc(O)c3c2O[C@@](C)(CC/C=C(\C)CCC=C(C)C)[C@@H](O)C3)C1=O [Compound 1, δ-Deutero SMTP-7] | 11300 ng·h/mL | 19100 ng/mL | 4.8 min | 536 ± 36.6 min | 3.06 ± 0.25 h | – | –
[2H][C@](CCCN1Cc2c(cc(O)c3c2O[C@@](C)(CC/C=C(\C)CCC=C(C)C)[C@@H](O)C3)C1=O)(C(=O)O)N1Cc2c(cc(O)c3c2O[C@@](C)(CC/C=C(\C)CCC=C(C)C)[C@@H](O)C3)C1=O [Compound 2, α-Deutero SMTP-7] | – | – | – | – | – | did not greatly differ | did not greatly differ
[2H]C([2H])(CCN1Cc2c(cc(O)c3c2O[C@@](C)(CC/C=C(\C)CCC=C(C)C)[C@@H](O)C3)C1=O)[C@@H](C(=O)O)N1Cc2c(cc(O)c3c2O[C@@](C)(CC/C=C(\C)CCC=C(C)C)[C@@H](O)C3)C1=O [Compound 3, β-Deutero SMTP-7] | – | – | – | – | – | did not greatly differ | did not greatly differ
[2H]C([2H])(C[C@@H](C(=O)O)N1Cc2c(cc(O)c3c2O[C@@](C)(CC/C=C(\C)CCC=C(C)C)[C@@H](O)C3)C1=O)CN1Cc2c(cc(O)c3c2O[C@@](C)(CC/C=C(\C)CCC=C(C)C)[C@@H](O)C3)C1=O [Compound 4, γ-Deutero SMTP-7] | – | – | – | – | – | lower AUC than SMTP-7 | lower T1/2
CC(C)=CCC/C(C)=C/CC[C@]1(C)Oc2c(c(O)cc3c2CN(CCC[C@@H](C(=O)O)N2Cc4c(cc(O)c5c4O[C@@](C)(CC/C=C(\C)CCC=C(C)C)[C@@H](O)C5)C2=O)C3=O)C[C@@H]1O [SMTP-7, Stachybotrys microspore triprenyl phenol-7] | 8010 ng·h/mL | 26300 ng/mL | 4.8 min | 401 ± 10.7 min | 0.465 ± 0.08 h | did not greatly differ | did not greatly differ
